Measured values: article PMC1208959 (Virology Journal, 2005)

CC[C@H](C)[C@H](NC(=O)[C@H](Cc1ccc(O)cc1)NC(=O)[C@H](CC(=O)O)NC(=O)[C@H](CCCCN)NC(=O)[C@H](CO)NC(=O)[C@H](CCC(N)=O)NC(=O)[C@H](CCC(N)=O)NC(=O)[C@H](CC(C)C)NC(=O)[C@H](CO)NC(=O)[C@H](CCC(N)=O)NC(=O)[C@H](CC(N)=O)NC(=O)[C@H](CCSC)NC(=O)[C@H](CO)NC(=O)[C@H](CO)NC(=O)[C@@H](NC(=O)[C@H](CCC(N)=O)NC(=O)[C@H](CO)NC(=O)[C@H](CO)NC(=O)[C@@H](NC(=O)[C@H](CC(=O)O)NC(=O)[C@@H](NC(=O)[C@H](CCCCN)NC(=O)CCOCCOCCOCCOCCOCCOCCOCCOCCOCCOCCOCCOCCNC(C)=O)C(C)C)[C@@H](C)CC)[C@@H](C)CC)C(=O)N[C@@H](CCCCN)C(=O)N[C@@H](CCC(=O)O)C(=O)N[C@@H](C)C(=O)N[C@@H](CCC(N)=O)C(=O)N[C@@H](CCCNC(=N)N)C(=O)N[C@@H](CC(C)C)C(=O)N[C@@H](CC(C)C)C(=O)N[C@@H](CC(=O)O)C(=O)N[C@H](C(=O)N[C@H](C(=O)N[C@@H](CC(N)=O)C(=O)N1CCC[C@H]1C(=O)N[C@@H](CO)C(=O)N[C@@H](CC(C)C)C(N)=O)C(C)C)[C@@H](C)O [N-PEG NiV FC2]
number of syncytia per cell monolayer (in words) (live HeV): largely unchanged | syncytial morphology and size (in words) (live HeV): dramatic and robust reduction in syncytial size | number of syncytia per cell monolayer (in words) (live NiV): largely unchanged | syncytial morphology and size (in words) (live NiV): dramatic and robust reduction in syncytial size
